# Reference: the supplement of paper PMC10307832
# Experiments:
# Assay in all cases: relative viability (nuclei count vs DMSO), 5 days (fraction); higher = more cells survive
# ABC-1 = system: ABC-1
# Outline: (§1)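 Cells from lung cancer lines were seeded into 1536-well plates and, one day later, dosed by pin tool. Treatments were either a single drug or a fixed dose of an anchor drug with five library-drug doses (not always all listed) in √10 steps. After 5 days, nuclei were stained in a one-step fixation (final 0.05% Triton X-100, 1% formaldehyde, 1 ug/ml Hoechst) and counted on 4× images, and relative viability is the treated-to-vehicle nuclei ratio, as the median of duplicate plates.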
# CAL-12T = system: CAL-12T
# Outline: as §1
# COR-L 105 = system: COR-L 105
# Outline: as §1
# ChaGo-K-1 = system: ChaGo-K-1
# Outline: as §1
# EMC-BAC-2 = system: EMC-BAC-2
# Outline: as §1
# EPLC-272H = system: EPLC-272H
# Outline: as §1
# HCC-15 = system: HCC-15
# Outline: as §1
# HCC-78 = system: HCC-78
# Outline: as §1
# HOP-62 = system: HOP-62
# Outline: as §1
# LXF-289 = system: LXF-289
# Outline: as §1
# NCI-H1666 = system: NCI-H1666
# Outline: as §1
# NCI-H1755 = system: NCI-H1755
# Outline: as §1
# NCI-H1915 = system: NCI-H1915
# Outline: as §1
# NCI-H1975 = system: NCI-H1975
# Outline: as §1
# NCI-H2023 = system: NCI-H2023
# Outline: as §1
# NCI-H2085 = system: NCI-H2085
# Outline: as §1
# NCI-H2126 = system: NCI-H2126
# Outline: as §1
# NCI-H3122 = system: NCI-H3122
# Outline: as §1
# NCI-H322M = system: NCI-H322M
# Outline: as §1
# NCI-H358 = system: NCI-H358
# Outline: as §1
# NCI-H441 = system: NCI-H441
# Outline: as §1
# UMC-11 = system: UMC-11
# Outline: as §1
smiles,measurement,setting,value
Nc1ccn([C@@H]2O[C@H](CO)[C@@H](O)[C@@H]2O)c(=O)n1 [Cytarabine] + CC(=O)c1c(C)c2cnc(Nc3ccc(N4CCNCC4)cn3)nc2n(C2CCCC2)c1=O [Palbociclib] (partner 0.5 µM),relative viability,ABC-1; first compound 0.005 µM,0.49
same,relative viability,ABC-1; first compound 0.01581 µM,0.736
same,relative viability,ABC-1; first compound 0.05 µM,0.625
same,relative viability,ABC-1; first compound 0.1581 µM,0.468
same,relative viability,ABC-1; first compound 0.5 µM,0.432
same,relative viability,CAL-12T; first compound 0.005 µM,0.341
same,relative viability,CAL-12T; first compound 0.01581 µM,0.389
same,relative viability,CAL-12T; first compound 0.05 µM,0.421
same,relative viability,CAL-12T; first compound 0.1581 µM,0.193
same,relative viability,CAL-12T; first compound 0.5 µM,0.146
same,relative viability,COR-L 105; first compound 0.005 µM,0.37
same,relative viability,COR-L 105; first compound 0.01581 µM,0.37
same,relative viability,COR-L 105; first compound 0.05 µM,0.27
same,relative viability,COR-L 105; first compound 0.1581 µM,0.351
same,relative viability,COR-L 105; first compound 0.5 µM,0.324
same,relative viability,ChaGo-K-1; first compound 0.005 µM,0.71
same,relative viability,ChaGo-K-1; first compound 0.01581 µM,0.598
same,relative viability,ChaGo-K-1; first compound 0.05 µM,0.461
same,relative viability,ChaGo-K-1; first compound 0.1581 µM,0.276
same,relative viability,ChaGo-K-1; first compound 0.5 µM,0.229
same,relative viability,EMC-BAC-2; first compound 0.005 µM,0.51
same,relative viability,EMC-BAC-2; first compound 0.01581 µM,0.501
same,relative viability,EMC-BAC-2; first compound 0.05 µM,0.463
same,relative viability,EMC-BAC-2; first compound 0.1581 µM,0.353
same,relative viability,EMC-BAC-2; first compound 0.5 µM,0.303
same,relative viability,EPLC-272H; first compound 0.005 µM,0.319
same,relative viability,EPLC-272H; first compound 0.01581 µM,0.29
same,relative viability,EPLC-272H; first compound 0.05 µM,0.281
same,relative viability,EPLC-272H; first compound 0.1581 µM,0.249
same,relative viability,EPLC-272H; first compound 0.5 µM,0.219
same,relative viability,HCC-15; first compound 0.005 µM,0.743
same,relative viability,HCC-15; first compound 0.01581 µM,0.673
same,relative viability,HCC-15; first compound 0.05 µM,0.835
same,relative viability,HCC-15; first compound 0.1581 µM,0.671
same,relative viability,HCC-15; first compound 0.5 µM,0.514
same,relative viability,HCC-78; first compound 0.005 µM,0.492
same,relative viability,HCC-78; first compound 0.01581 µM,0.42
same,relative viability,HCC-78; first compound 0.05 µM,0.393
same,relative viability,HCC-78; first compound 0.1581 µM,0.366
same,relative viability,HCC-78; first compound 0.5 µM,0.361
same,relative viability,HOP-62; first compound 0.005 µM,0.395
same,relative viability,HOP-62; first compound 0.01581 µM,0.297
same,relative viability,HOP-62; first compound 0.05 µM,0.234
same,relative viability,HOP-62; first compound 0.1581 µM,0.139
same,relative viability,HOP-62; first compound 0.5 µM,0.155
same,relative viability,LXF-289; first compound 0.005 µM,0.49
same,relative viability,LXF-289; first compound 0.01581 µM,0.563
same,relative viability,LXF-289; first compound 0.05 µM,0.511
same,relative viability,LXF-289; first compound 0.1581 µM,0.296
same,relative viability,LXF-289; first compound 0.5 µM,0.287
same,relative viability,NCI-H1666; first compound 0.005 µM,0.611
same,relative viability,NCI-H1666; first compound 0.01581 µM,0.573
same,relative viability,NCI-H1666; first compound 0.05 µM,0.627
same,relative viability,NCI-H1666; first compound 0.1581 µM,0.511
same,relative viability,NCI-H1666; first compound 0.5 µM,0.575
same,relative viability,NCI-H1755; first compound 0.005 µM,0.428
same,relative viability,NCI-H1755; first compound 0.01581 µM,0.422
same,relative viability,NCI-H1755; first compound 0.05 µM,0.434
same,relative viability,NCI-H1755; first compound 0.1581 µM,0.377
same,relative viability,NCI-H1755; first compound 0.5 µM,0.414
same,relative viability,NCI-H1915; first compound 0.005 µM,0.532
same,relative viability,NCI-H1915; first compound 0.01581 µM,0.47
same,relative viability,NCI-H1915; first compound 0.05 µM,0.37
same,relative viability,NCI-H1915; first compound 0.1581 µM,0.265
same,relative viability,NCI-H1915; first compound 0.5 µM,0.2
same,relative viability,NCI-H1975; first compound 0.005 µM,0.453
same,relative viability,NCI-H1975; first compound 0.01581 µM,0.574
same,relative viability,NCI-H1975; first compound 0.05 µM,0.46
same,relative viability,NCI-H1975; first compound 0.1581 µM,0.283
same,relative viability,NCI-H1975; first compound 0.5 µM,0.212
same,relative viability,NCI-H2023; first compound 0.005 µM,0.378
same,relative viability,NCI-H2023; first compound 0.01581 µM,0.221
same,relative viability,NCI-H2023; first compound 0.05 µM,0.129
same,relative viability,NCI-H2023; first compound 0.1581 µM,0.0971
same,relative viability,NCI-H2023; first compound 0.5 µM,0.088
same,relative viability,NCI-H2085; first compound 0.005 µM,0.445
same,relative viability,NCI-H2085; first compound 0.01581 µM,0.425
same,relative viability,NCI-H2085; first compound 0.05 µM,0.393
same,relative viability,NCI-H2085; first compound 0.1581 µM,0.294
same,relative viability,NCI-H2085; first compound 0.5 µM,0.266
same,relative viability,NCI-H2126; first compound 0.005 µM,0.352
same,relative viability,NCI-H2126; first compound 0.01581 µM,0.312
same,relative viability,NCI-H2126; first compound 0.05 µM,0.298
same,relative viability,NCI-H2126; first compound 0.1581 µM,0.277
same,relative viability,NCI-H2126; first compound 0.5 µM,0.261
same,relative viability,NCI-H3122; first compound 0.005 µM,0.188
same,relative viability,NCI-H3122; first compound 0.01581 µM,0.389
same,relative viability,NCI-H3122; first compound 0.05 µM,0.122
same,relative viability,NCI-H3122; first compound 0.1581 µM,0.126
same,relative viability,NCI-H3122; first compound 0.5 µM,0.113
same,relative viability,NCI-H322M; first compound 0.005 µM,0.414
same,relative viability,NCI-H322M; first compound 0.01581 µM,0.492
same,relative viability,NCI-H322M; first compound 0.05 µM,0.42
same,relative viability,NCI-H322M; first compound 0.1581 µM,0.385
same,relative viability,NCI-H322M; first compound 0.5 µM,0.383
same,relative viability,NCI-H358; first compound 0.005 µM,0.126
same,relative viability,NCI-H358; first compound 0.01581 µM,0.115
same,relative viability,NCI-H358; first compound 0.05 µM,0.0934
same,relative viability,NCI-H358; first compound 0.1581 µM,0.0712
same,relative viability,NCI-H358; first compound 0.5 µM,0.0692
same,relative viability,NCI-H441; first compound 0.005 µM,0.198
same,relative viability,NCI-H441; first compound 0.01581 µM,0.197
same,relative viability,NCI-H441; first compound 0.05 µM,0.168
same,relative viability,NCI-H441; first compound 0.1581 µM,0.139
same,relative viability,NCI-H441; first compound 0.5 µM,0.17
same,relative viability,UMC-11; first compound 0.005 µM,0.371
same,relative viability,UMC-11; first compound 0.01581 µM,0.304
same,relative viability,UMC-11; first compound 0.05 µM,0.263
same,relative viability,UMC-11; first compound 0.1581 µM,0.236
same,relative viability,UMC-11; first compound 0.5 µM,0.219
